In experiment [1] the target is T1, Human KIF18A (amino acid sequence 1-417) (Homo sapiens, UniProt Q8NI77).
T1 construct: purchased Viva Biotech (Shanghai) Ltd
T1 sequence (Q8NI77 1-417): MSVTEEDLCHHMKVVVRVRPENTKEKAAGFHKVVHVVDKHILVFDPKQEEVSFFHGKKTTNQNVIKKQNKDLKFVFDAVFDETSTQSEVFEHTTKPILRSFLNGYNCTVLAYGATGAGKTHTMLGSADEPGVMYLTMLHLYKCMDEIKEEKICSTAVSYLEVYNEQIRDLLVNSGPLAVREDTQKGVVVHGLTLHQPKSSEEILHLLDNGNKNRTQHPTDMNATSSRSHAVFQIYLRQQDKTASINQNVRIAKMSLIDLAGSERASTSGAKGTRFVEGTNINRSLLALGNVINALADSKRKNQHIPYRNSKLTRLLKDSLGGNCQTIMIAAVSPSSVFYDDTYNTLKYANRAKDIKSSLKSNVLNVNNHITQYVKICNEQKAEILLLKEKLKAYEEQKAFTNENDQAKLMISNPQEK
As to the kind of experiment: Enzymatic Activity Test (ADP-Glo, microtubule-stimulated KIF18A ATPase). Conditions: 60 µg/mL microtubules, 25 µM ATP, 2.5 nM KIF18A protein, 120 min at ambient temperature, chemiluminescence; read-out: KIF 18A IC50. The experiment is classed as biochemical. The protocol:
Assay 1: Enzymatic Activity Test
Materials: Human KIF18A (amino acid sequence 1-417) was purchased from Viva Biotech (Shanghai) Ltd.; the ADP-Glo™ protein kinase kit was acquired from Promega, USA; tubulin was sourced from Cytoskeleton, USA; and the 384-well assay plate and Envision multifunctional microplate reader were obtained from PerkinElmer, USA.
Enzymatic Activity Test: The compound powder was dissolved in DMSO to prepare a stock solution of 10 mM. Then gradient dilution was performed for the compounds in the microplate to achieve a final concentration of 0-10 µM. Then, 2.5 µL each of tubulin, compound, ATP, and KIF18A protein were added to the microplate in sequence for reaction at ambient temperature for 120 min. The final concentrations in the enzyme reaction were 60 µg/mL for microtubules, 25 µM for ATP, and 2.5 nM for KIF18A protein. After the enzyme reaction, 10 µL of ADP-GLO reaction reagent was added to each well and incubated at room temperature for 30 min. After that, 20 µL of detection reagent was added to each well and incubated at room temperature for 30 min in the dark. Finally, chemiluminescence detection was performed using the PerkinElmer Envision.
Background: ADP-Glo first removes unused ATP, then detects ADP through luciferase.

Experiment [2] deals with OVCAR3 cells. As to the kind of experiment: Cell Proliferation Activity Test (CyQUANT Direct), OVCAR3. As to conditions: compound 0-10 µM, 3 days, 0.2% DMSO, CyQUANT fluorescence, read-out: OVCAR-3 _IC50_nM. The experiment is classed as cell-based. The protocol: Assay 2: Cell Proliferation Activity Test
Materials and Cells: OVCAR3 cells were purchased from Nanjing Cobioer Biosciences Co., Ltd. RPMI-1640 medium, fetal bovine serum, and the CyQUANT Direct Cell Proliferation Assay kit were purchased from Thermo Fisher Scientific, USA; 96-well cell culture plates were sourced from Coming, USA.
Cell Culture: OVCAR3 cells were cultured with RPMI-1640 medium containing 10% fetal bovine serum and incubated in a 5% CO2 incubator at 37°C. Only cells in the logarithmic growth phase could be used for the test.
Cell Proliferation Activity Test:
OVCAR3 cells were inoculated into a 96-well cell culture plate at 90 µL per well and incubated overnight in a 5% CO2 incubator at 37°C. The compound powder was dissolved in DMSO to prepare a stock solution of 10 mM. Then gradient dilution was performed for the compounds in the microplate to achieve a final concentration of 0-10 µM. 10 µL of cell culture medium containing compounds was added to each well to make the final DMSO content 0.2%. The cell plates were incubated in a 5% CO2 incubator at 37°C for 3 days. 100 µL of CyQUANT detection reagent was added to each well, reacted at 37°C for 60 min, and fluorescence detection was performed using the PerkinElmer Envision.

Experiment [3] has as its system HT29 cells. Description: CyQuant Cell Proliferation Activity Test, HT29. Conditions: HT29 cells 2000 per well, initial concentration 3000 nM, 3-fold dilution, 3 days, 0.2% DMSO, read-out: HT29_IC50 _nM. In kind it is cell-based. The protocol:
Assay 3: CyQuant Cell Proliferation Activity Test
Materials and Cells: HT29 cells were purchased from Nanjing Cobioer Biosciences Co., Ltd.; RPMI-1640 medium, fetal bovine serum, Trypsin-EDTA (0.25%), 96-well plates, and CyQuant reagents were purchased from ThermoFisher (USA); DMSO was purchased from SIGMA (USA).
Cell Culture: HT29 cells were cultured with RPMI-1640 containing 10% fetal bovine serum under the condition of 37°C and 5% CO2. Only cells in the logarithmic growth phase could be used for the test.
Cell Proliferation Activity Test: CyQuant reagent was used to detect the proliferation inhibitory activity of compounds on HT29 cells. The cell density was adjusted, and 100 µL per well was inoculated into a 96-well plate (HT29 at 2000 cells per well), then incubated overnight at 37°C and 5% CO2. Add compounds of various target concentrations (initial concentration of 3000 nM, 3-fold dilution, 9 concentration gradients), and make the DMSO content 0.2%. The cell plate was incubated at 37°C in 5% CO2 for 3 days. CyQuant reagent was added and incubated for 1 h. The plates were read by Envision, and IC50 was calculated using XLFIT.

Read-outs that look alike come from different tables or passages of the source. Where only a bound is given, the exact number is not on record here.

For `COc1cc2nc(n1)N1CCC(F)(F)C(C=CCC3CCN(CC3)c3cc(NS(=O)(=O)CCO)ccc3C(=O)N2)C1` (stereo not shown) [Example 24, (Z)-N-(1^4,1^4-difluoro-2^6-methoxy-4-oxo-3-aza-2(2,4)-pyrimidin-1(1,3),6(1,4)-dipiperidin-5(1,2)-benzeneheterocyclonon-8-en-5^4-yl)-2-hydroxyethane-1-sulfonamide], the IC50 in experiment [1] came to 158 nM; in experiment [2] (Homo sapiens, OVCAR-3, 72 h), 46 nM; in experiment [3] (Homo sapiens, HT-29, 72 h), 63 nM.

On to `Cc1cc2nc(n1)N1CCC(F)(F)C(C=CCC3CCN(CC3)c3cc(NS(=O)(=O)CCO)ccc3C(=O)N2)C1` (stereo not shown) [Example 18B, N-(1^3R,E)-1^4,1^4-difluoro-2^6-methyl-4-oxo-3-aza-2(2,4)-pyrimidin-1(1,3),6(1,4)-dip iperidin-5(1,2)-benzeneheterocyclononane-8-en-5^4-yl)-2-hydroxyethane-1-sulfonamide], for which the values for the IC50 in experiment [1], in experiment [2] and in experiment [3] were 46 nM, 12 nM and 16 nM, respectively.

As for `Cc1cc2nc(n1)N1CCCC(CCCC3CCN(CC3)c3cc(NS(=O)(=O)CCO)ccc3C(=O)N2)C1` (stereo not shown) [Example 3, 2-Hydroxy-N-(2^6-methyl-4-oxo-3-aza-2(2,4)-pyrimidin-1(1,3),6(1,4)-dipiperidin-5 (1,2)-benzeneheterocyclononane-5^4-yl)ethane-1-sulfonamide], the IC50 in experiment [1] was found to be 98 nM; in experiment [2], 76 nM; in experiment [3], 68 nM.

With `Cc1cc2nc(n1)N1CCC(F)(F)C(CCCC3CCN(CC3)c3cc(NS(=O)(=O)CCO)ccc3C(=O)N2)C1` (stereo not shown) [Example 23B, N-((1^3R)-1^4,1^4-difluoro-2^6-methyl-4-oxo-3-aza-2(2,4)-pyrimidin-1(1,3),6(1,4)-dipiperidin-5(1,2)-benzeneheterocyclononane-5^4-yl)-2-hydroxyethane-1-sulfonamide], the IC50 in experiment [1] was found to be 71.5 nM; in experiment [2], 28 nM; in experiment [3], 32 nM.

Take `Cc1cc2nc(n1)N1CCCC(C=CCC3CCN(CC3)c3cc(NS(=O)(=O)CCO)ccc3C(=O)N2)C1` (stereo not shown) [Example 1C, 2-Hydroxy-N-((1^3S,Z)-2^6-methyl-4-oxo-3-aza-2(2,4)-pyrimidin-1(1,3),6(1,4)-dipiperidin-5(1,2)-benzoaza-8-en-5^4-yl)ethane-1-sulfonamide]: the IC50 amounted to 36 nM in experiment [1], 61 nM in experiment [2] and 78 nM in experiment [3].

In the case of `Cc1cc2nc(n1)N1CCCC(C=CC3CCCN(C3)c3cc(NS(=O)(=O)CCO)ccc3C(=O)N2)C1` (stereo not shown) [Example 8, (Z)-2-hydroxy-N-(1^6-methyl-7-oxo-8-aza-1(2,4)-pyrimidin-2(1,3),5(3,1)-dipiperidin-6(1,2)-benzeneheterocyclooct-3-en-6^5-yl)ethane-1-sulfonamide], the IC50 was 2300 nM in experiment [1] and > 3000 nM in experiment [2] (Homo sapiens, OVCAR-3, 72 h).

In the case of `Cc1cc2nc(n1)N1CCCC(C=CCC3CCN(CC3)c3cc(NS(=O)(=O)CCO)ccc3C(=O)N2)C1` (stereo not shown) [Example 1B, 2-Hydroxy-N-((1^3R,E)-2^6-methyl-4-oxo-3-aza-2(2,4)-pyrimidin-1(1,3),6(1,4)-dipiperidin-5(1,2)-benzoaza-8-en-5^4-yl)ethane-1-sulfonamide], the IC50 in experiment [1] amounted to 34 nM; in experiment [2] it was 6 nM; in experiment [3], 7 nM.

Take `Cc1cc2nc(n1)N1CCCC(C=CCC3CCCN(C3)c3cc(NS(=O)(=O)CCO)ccc3C(=O)N2)C1` (stereo not shown) [Example 10, 2-Hydroxy-N-(2^6-methyl-4-oxo-3-aza-2(2,4)-pyrimidin-1,6(1,3)-dipiperidin-5(1,2) -benzeneheterocyclononane-8-en-5^4-yl)ethane-1-sulfonamide]: the IC50 was 200 nM in experiment [1]; 136 nM in experiment [2] (Homo sapiens, OVCAR-3, 72 h); 172 nM in experiment [3] (Homo sapiens, HT-29, 72 h).

`Cc1cc2nc(n1)OCCOCCC1CCN(CC1)c1cc(NS(=O)(=O)CCO)ccc1C(=O)N2` [Example 29, 2-Hydroxy-N-(5^6-methyl-3-oxo-6,9-dioxa-4-aza-5(4,2)-pyrimidin-1(1,4)-piperidin-2(1,2)-benzeneheterocycloundecane-2^5)ethane-1-sulfonamide]: the IC50 in experiment [1] came out at 141 nM.

`Cc1cc2nc(n1)N1CCCC(CCC3CCCN(C3)c3cc(NS(=O)(=O)CCO)ccc3C(=O)N2)C1` (stereo not shown) [Example 9, 2-Hydroxy-N-(1^6-methyl-7-oxo-8-aza-1(2,4)-pyrimidin-2(1,3),5(3,1)-dipiperidin-6 (1,2)-benzeneheterocyclooctan-6^5-yl)ethane-1-sulfonamide]: the IC50 came to 293 nM in experiment [1] and 548 nM in experiment [2] (Homo sapiens, OVCAR-3, 72 h).

As for `Cc1cc2nc(n1)N1CCC(F)(F)C(CC=CC3CCN(CC3)c3cc(NS(=O)(=O)CCO)ccc3C(=O)N2)C1` (stereo not shown) [Example 19, (E)-N-(1^4,1^4-difluoro-2^6-methyl-4-oxo-3-aza-2(2,4)-pyrimidin-1(1,3),6(1,4)-dipiperidin-5(1,2)-benzeneheterocyclonon-7-en-5^4-yl)-2-hydroxyethane-1-sulfonamide], the IC50 amounted to 184 nM in experiment [1]; 703 nM in experiment [2] (Homo sapiens, OVCAR-3, 72 h); 644 nM in experiment [3] (Homo sapiens, HT-29, 72 h).

Consider `Cc1cc2nc(n1)N1CCOC(CCCC3CCN(CC3)c3cc(NS(=O)(=O)CCO)ccc3C(=O)N2)C1` (stereo not shown) [Example 26, 2-Hydroxy-N-((1^2S)-2^6-methyl-4-oxo-3-aza-1(4,2)-morpholin-2(2,4)-pyrimidin-6(1,4)-piperidin-5(1,2)-benzeneheterocyclononane-5^4-yl)ethane-1-sulfonamide], for which the IC50 in experiment [1] was determined as 15 nM.

With `Cc1cc2nc(n1)N1CCCC(COCC3CCN(CC3)c3cc(NS(=O)(=O)CCO)ccc3C(=O)N2)C1` (stereo not shown) [Example 28B, 2-Hydroxy-N-((1^3S)-2^6-methyl-4-oxo-8-oxa-3-aza-2(2,4)-pyrimidin-1(1,3),6(1,4)-dipiperidin-5(1,2)-benzeneheterocyclononane-5^4-yl)ethane-1-sulfonamide], in experiment [1], the IC50 was 743 nM.

Consider `Cc1cc2nc(n1)N1CCCC(COCC3CCN(CC3)c3cc(NS(=O)(=O)CCO)ccc3C(=O)N2)C1` (stereo not shown) [Example 28A, 2-Hydroxy-N-((1^3R)-2^6-methyl-4-oxo-8-oxa-3-aza-2(2,4)-pyrimidin-1(1,3),6(1,4)-dipiperidin-5(1,2)-benzeneheterocyclononane-5^4-yl)ethane-1-sulfonamide], for which, in experiment [1], the IC50 was 178 nM.

As to `Cc1cc2nc(n1)N1CCCC(CCCC3CCCN(C3)c3cc(NS(=O)(=O)CCO)ccc3C(=O)N2)C1` (stereo not shown) [Example 11, 2-Hydroxy-N-(2^6-methyl-4-oxo-3-aza-2(2,4)-pyrimidin-1,6(1,3)-dipiperidin-5(1,2) -benzoylcyclononyl-5^4-yl)ethane-1-sulfonamide], the IC50 in experiment [1] turned out to be 233 nM; in experiment [2] (Homo sapiens, OVCAR-3, 72 h) it was 150 nM.
